Results as given in paper PMC6332448, “SAR Studies Leading to the Identification of a Novel Series of Metallo-β-lactamase Inhibitors for the Treatment of Carbapenem-Resistant Enterobacteriaceae Infections That Display Efficacy in an Animal Infection Model” (ACS Infectious Diseases, 2018).
Values after ≈ are worked out from the molar mass of the structure shown.

target: NDM-1 (Klebsiella pneumoniae, UniProt C7C422); test: biochemical; format: biochemical; settings: 300 μM imipenem, 10 mM HEPES pH 7.5, 25 °C; average of at least two independent assays; read-out: NDM-1 IC50
Sequence (C7C422 29-270, looked up, species assumed): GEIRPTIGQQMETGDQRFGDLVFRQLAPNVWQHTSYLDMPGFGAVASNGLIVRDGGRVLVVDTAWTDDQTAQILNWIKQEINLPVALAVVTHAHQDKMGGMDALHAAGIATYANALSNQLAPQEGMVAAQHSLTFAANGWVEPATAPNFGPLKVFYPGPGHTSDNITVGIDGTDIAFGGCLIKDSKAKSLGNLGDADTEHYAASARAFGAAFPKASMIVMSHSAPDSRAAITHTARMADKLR

| Compound | IC50 |
| --- | --- |
| O=C(O)c1ncccc1NS(=O)(=O)Cc1ccc(Cl)cc1Cl [Compound 41] | 80.6 µM |
| O=C(O)c1ncccc1NS(=O)(=O)Cc1ccccc1Cl [Compound 39] | 32.6 µM |
| O=C(O)c1ncccc1NS(=O)(=O)Cc1cccc(C(F)(F)F)c1 [Compound 40] | 17.9 µM |

same assay, conditions: NDM-1 IC50, 300 μM imipenem, 10 mM HEPES pH 7.5, 25 °C; average of at least two independent assays

| Compound | IC50 |
| --- | --- |
| O=C(O)c1ncsc1NS(=O)(=O)c1ccccc1 [Compound 62] | 4.5 µM |
| N#Cc1cccc(CS(=O)(=O)Nc2cccnc2C(=O)O)c1 [Compound 65] | 116 µM |
| O=C(O)c1ncsc1NS(=O)(=O)Cc1ccc(Cl)cc1Cl [Compound 72] | 2.1 µM |
| O=C(O)c1ncsc1NS(=O)(=O)Cc1cc(Cl)cc(Cl)c1 [Compound 74] | 6.9 µM |
| O=C(O)c1ncsc1NS(=O)(=O)Cc1ccccc1Cl [Compound 68] | 2.32 µM |
| O=C(O)c1ncsc1NS(=O)(=O)Cc1ccc(Cl)c(Cl)c1 [Compound 70] | 7.88 µM |

target: VIM-1 (Pseudomonas aeruginosa, UniProt A0A0F7KYQ8); test: biochemical; format: biochemical; settings: not given

| Compound | IC50 |
| --- | --- |
| O=C(O)c1ncsc1NS(=O)(=O)c1ccccc1 [Compound 62] | > 200 µM |
| N#Cc1cccc(CS(=O)(=O)Nc2cccnc2C(=O)O)c1 [Compound 65] | > 200 µM |
| O=C(O)c1ncsc1NS(=O)(=O)Cc1ccc(Cl)cc1Cl [Compound 72] | 7 µM |
| O=C(O)c1ncsc1NS(=O)(=O)Cc1cc(Cl)cc(Cl)c1 [Compound 74] | 28 µM |
| O=C(O)c1ncsc1NS(=O)(=O)Cc1ccccc1Cl [Compound 68] | 6.72 µM |
| O=C(O)c1ncsc1NS(=O)(=O)Cc1ccc(Cl)c(Cl)c1 [Compound 70] | 37.9 µM |

same assay, conditions: 300 μM imipenem, 10 mM HEPES pH 7.5, 25 °C; average of at least two independent assays; read-out: VIM-1 IC50

| Compound | IC50 |
| --- | --- |
| O=C(O)c1ncccc1NS(=O)(=O)Cc1ccc(Cl)cc1Cl [Compound 41] | 17.5 µM |
| O=C(O)c1ncccc1NS(=O)(=O)Cc1ccccc1Cl [Compound 39] | 10.9 µM |
| O=C(O)c1ncccc1NS(=O)(=O)Cc1cccc(C(F)(F)F)c1 [Compound 40] | 71.6 µM |

target: IMP-1 (Serratia marcescens, UniProt P52699); test: biochemical; format: biochemical; settings: not given
Sequence (P52699 19-246, looked up, species assumed): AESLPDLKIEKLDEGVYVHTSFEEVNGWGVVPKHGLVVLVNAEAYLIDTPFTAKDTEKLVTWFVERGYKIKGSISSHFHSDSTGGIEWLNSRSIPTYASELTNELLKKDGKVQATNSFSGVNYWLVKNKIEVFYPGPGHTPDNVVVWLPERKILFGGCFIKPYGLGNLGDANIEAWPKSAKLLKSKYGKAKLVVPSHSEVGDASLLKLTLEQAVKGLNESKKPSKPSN

| Compound | IC50 |
| --- | --- |
| O=C(O)c1ncsc1NS(=O)(=O)c1ccccc1 [Compound 62] | 58.2 µM |
| N#Cc1cccc(CS(=O)(=O)Nc2cccnc2C(=O)O)c1 [Compound 65] | 150 µM |
| O=C(O)c1ncsc1NS(=O)(=O)Cc1ccc(Cl)cc1Cl [Compound 72] | 0.5 µM |
| O=C(O)c1ncsc1NS(=O)(=O)Cc1cc(Cl)cc(Cl)c1 [Compound 74] | 3.2 µM |
| O=C(O)c1ncsc1NS(=O)(=O)Cc1ccccc1Cl [Compound 68] | 1.75 µM |
| O=C(O)c1ncsc1NS(=O)(=O)Cc1ccc(Cl)c(Cl)c1 [Compound 70] | 3.55 µM |

same assay, conditions: 300 μM imipenem, 10 mM HEPES pH 7.5, 25 °C; average of at least two independent assays; read-out: IMP-1 IC50

| Compound | IC50 |
| --- | --- |
| O=C(O)c1ncccc1NS(=O)(=O)Cc1ccc(Cl)cc1Cl [Compound 41] | 74.3 µM |
| O=C(O)c1ncccc1NS(=O)(=O)Cc1ccccc1Cl [Compound 39] | 20.9 µM |
| O=C(O)c1ncccc1NS(=O)(=O)Cc1cccc(C(F)(F)F)c1 [Compound 40] | > 200 µM |

test system: NDM-1-producing strain Escherichia coli NTBC121; test: Whole-cell meropenem potentiation, CLSI broth microdilution MIC; format: cell-based; settings: 62 (thiazolyl) versus 61 (pyridyl), from PE values
Procedure: (§1) Minimal inhibitory concentrations (MIC) were determined using the Clinical Laboratory Standards Institute (CLSI) broth microdilution procedure. MBL-positive Enterobacteriaceae clinical isolates tested in the susceptibility study included NDM-1-producing strain E. coli NTBC121, VIM-1-producing strain K. pneumoniae NTBC055, and IMP-1-producing strain K. pneumoniae NTBC062. (Individual MICs for all strains tested are presented in Table 2 and Table 1 in the Supporting Information).

| Compound | improvement in potentiation over that expected from enzyme inhibition alone |
| --- | --- |
| O=C(O)c1ncsc1NS(=O)(=O)c1ccccc1 [Compound 62] | 10 fold |

same assay, conditions: inhibitor present at 100 μM; E. coli NTBC121 (NDM-1); meropenem alone 32 μg/mL

| Compound | MICMEM (meropenem MIC in presence of inhibitor) vs NTBC121 |
| --- | --- |
| O=C(O)c1ncsc1NS(=O)(=O)c1ccccc1 [Compound 62] | 0.125 µg/mL |
| N#Cc1cccc(CS(=O)(=O)Nc2cccnc2C(=O)O)c1 [Compound 65] | 32 µg/mL |
| O=C(O)c1ncsc1NS(=O)(=O)Cc1ccc(Cl)cc1Cl [Compound 72] | 0.5 µg/mL |
| O=C(O)c1ncsc1NS(=O)(=O)Cc1cc(Cl)cc(Cl)c1 [Compound 74] | 2 µg/mL |
| O=C(O)c1ncsc1NS(=O)(=O)Cc1ccccc1Cl [Compound 68] | 0.5 µg/mL |
| O=C(O)c1ncsc1NS(=O)(=O)Cc1ccc(Cl)c(Cl)c1 [Compound 70] | 2 µg/mL |
| O=C(O)c1ncccc1NS(=O)(=O)Cc1ccc(Cl)cc1Cl [Compound 41] | 16 µg/mL |
| O=C(O)c1ncccc1NS(=O)(=O)Cc1ccccc1Cl [Compound 39] | 16 µg/mL |
| O=C(O)c1ncccc1NS(=O)(=O)Cc1cccc(C(F)(F)F)c1 [Compound 40] | 16 µg/mL |

same assay, conditions: potentiated meropenem MIC vs E. coli NTBC121 divided by NDM-1 IC50

| Compound | potentiation efficiency (PE = MIC/IC50) |
| --- | --- |
| O=C(O)c1ncsc1NS(=O)(=O)c1ccccc1 [Compound 62] | 0.027 |

test system: VIM-1-producing strain Klebsiella pneumoniae NTBC055; test: as above; format: cell-based; settings: inhibitor present at 100 μM; K. pneumoniae NTBC055 (VIM-1); meropenem alone 16 μg/mL
Procedure: as §1

| Compound | MICMEM (meropenem MIC in presence of inhibitor) vs NTBC055 |
| --- | --- |
| O=C(O)c1ncsc1NS(=O)(=O)c1ccccc1 [Compound 62] | 0.5 µg/mL |
| N#Cc1cccc(CS(=O)(=O)Nc2cccnc2C(=O)O)c1 [Compound 65] | 2 µg/mL |
| O=C(O)c1ncsc1NS(=O)(=O)Cc1ccc(Cl)cc1Cl [Compound 72] | 0.5 µg/mL |
| O=C(O)c1ncsc1NS(=O)(=O)Cc1cc(Cl)cc(Cl)c1 [Compound 74] | 0.5 µg/mL |
| O=C(O)c1ncsc1NS(=O)(=O)Cc1ccccc1Cl [Compound 68] | 0.25 µg/mL |
| O=C(O)c1ncsc1NS(=O)(=O)Cc1ccc(Cl)c(Cl)c1 [Compound 70] | 1 µg/mL |
| O=C(O)c1ncccc1NS(=O)(=O)Cc1ccc(Cl)cc1Cl [Compound 41] | 1 µg/mL |
| O=C(O)c1ncccc1NS(=O)(=O)Cc1ccccc1Cl [Compound 39] | 0.5 µg/mL |
| O=C(O)c1ncccc1NS(=O)(=O)Cc1cccc(C(F)(F)F)c1 [Compound 40] | 2 µg/mL |

test system: IMP-1-producing strain K. pneumoniae NTBC062; test: as above; format: cell-based, Klebsiella pneumoniae; settings: inhibitor present at 100 μM; K. pneumoniae NTBC062 (IMP-1); meropenem alone 4 μg/mL
Procedure: as §1

| Compound | MICMEM (meropenem MIC in presence of inhibitor) vs NTBC062 |
| --- | --- |
| O=C(O)c1ncsc1NS(=O)(=O)c1ccccc1 [Compound 62] | 1 µg/mL |
| N#Cc1cccc(CS(=O)(=O)Nc2cccnc2C(=O)O)c1 [Compound 65] | 1 µg/mL |
| O=C(O)c1ncsc1NS(=O)(=O)Cc1ccc(Cl)cc1Cl [Compound 72] | 0.5 µg/mL |
| O=C(O)c1ncsc1NS(=O)(=O)Cc1cc(Cl)cc(Cl)c1 [Compound 74] | 1 µg/mL |
| O=C(O)c1ncsc1NS(=O)(=O)Cc1ccccc1Cl [Compound 68] | 0.5 µg/mL |
| O=C(O)c1ncsc1NS(=O)(=O)Cc1ccc(Cl)c(Cl)c1 [Compound 70] | 1 µg/mL |
| O=C(O)c1ncccc1NS(=O)(=O)Cc1ccc(Cl)cc1Cl [Compound 41] | 1 µg/mL |
| O=C(O)c1ncccc1NS(=O)(=O)Cc1ccccc1Cl [Compound 39] | 1 µg/mL |
| O=C(O)c1ncccc1NS(=O)(=O)Cc1cccc(C(F)(F)F)c1 [Compound 40] | 1 µg/mL |

test system: not listed separately; test: Kinetic solubility in PBS pH 7.4; format: physicochemical; settings: phosphate-buffered saline, pH 7.4, aqueous buffer, thermodynamic from solid, acid form, read-out: solubility
Procedure: This was determined by vigorous stirring (1200 rpm) of a 20 mg/mL mixture of the test compound in phosphate-buffered saline (PBS) at pH 7.4 for 4 h. The mixture was then centrifuged for 20 min at 10 000 rpm and the supernatant further processed by filtration. The concentration of the test compound in the filtrate was then determined by high-performance liquid chromatography (UV analysis) by comparison to a standard calibration curve of the test compound.

| Compound | solubility at 4 h |
| --- | --- |
| O=C(O)c1ncsc1NS(=O)(=O)c1ccccc1 [Compound 62] | 1.1 mg/mL (≈ 3.87 mM) |

same assay, conditions: phosphate-buffered saline, pH 7.4, aqueous buffer, thermodynamic from solid, sodium salt, read-out: solubility (Na salt)

| Compound | solubility at 4 h |
| --- | --- |
| O=C(O)c1ncsc1NS(=O)(=O)c1ccccc1 [Compound 62] | 18.9 mg/mL |

target: VIM-2 (Escherichia coli, UniProt Q5U7L7); test: biochemical; settings: not given

| Compound | IC50 |
| --- | --- |
| O=C(O)c1ncsc1NS(=O)(=O)c1ccccc1 [Compound 62] | 6.2 µM |
